Data from PubChem BioAssay (NCI).
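GI50: concentration for 50% inhibition of growth. TGI marks complete inhibition of growth.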

Columns and labels:
Assay in all cases: NCI-60 cell line screen, 384-well format
NCI-H322M lung = tested on: NCI-H322M lung
KM12 colon = tested on: KM12 colon
NCI/ADR-RES ovarian = tested on: NCI/ADR-RES ovarian
NCI-H460 NSCLC = tested on: NCI-H460 NSCLC
786-0 renal = tested on: 786-0 renal
SNB-19 CNS = tested on: SNB-19 CNS
K-562 leukemia = tested on: K-562 leukemia
OVCAR-5 ovarian = tested on: OVCAR-5 ovarian
PC-3 prostate = tested on: PC-3 prostate
UO-31 renal = tested on: UO-31 renal
SF-295 CNS = tested on: SF-295 CNS
MOLT-4 leukemia = tested on: MOLT-4 leukemia
SK-MEL-28 melanoma = tested on: SK-MEL-28 melanoma

CC(=O)N1CCC(Nc2cc(C(=O)NC[C@H](O)CN3CCc4ccccc4C3)ncn2)CC1
GI50 (NCI-H322M lung): > 100 µM | TGI (NCI-H322M lung): > 100 µM | GI50 (KM12 colon): > 100 µM | TGI (KM12 colon): > 100 µM | GI50 (NCI/ADR-RES ovarian): > 100 µM | TGI (NCI/ADR-RES ovarian): > 100 µM | GI50 (NCI-H460 NSCLC): 1.9 µM | TGI (NCI-H460 NSCLC): > 100 µM | GI50 ([…]-0 renal): > 100 µM | TGI (786-0 renal): > 100 µM | GI50 (SNB-19 CNS): > 100 µM | TGI (SNB-19 CNS): > 100 µM | GI50 (K-562 leukemia): > 100 µM | TGI (K-562 leukemia): > 100 µM | GI50 (OVCAR-5 ovarian): > 100 µM | TGI (OVCAR-5 ovarian): > 100 µM | GI50 (PC-3 prostate): > 100 µM | TGI (PC-3 prostate): > 100 µM | GI50 (UO-31 renal): > 100 µM | TGI (UO-31 renal): > 100 µM | GI50 (SF-295 CNS): > 100 µM | TGI (SF-295 CNS): > 100 µM | GI50 (MOLT-4 leukemia): < 0.0138 µM | TGI (MOLT-4 leukemia): 0.0854 µM | GI50 (SK-MEL-28 melanoma): > 100 µM | TGI (SK-MEL-28 melanoma): > 100 µM
